{"source": "ChEMBL document CHEMBL3867474", "about": "“Discovery of novel pyrrolidineoxy-substituted heteroaromatics as potent and selective PI3K delta inhibitors with improved physicochemical properties” (Bioorg Med Chem Lett, 2016)"}
{"biological_target": "T1, Phosphatidylinositol 4,5-bisphosphate 3-kinase catalytic subunit alpha isoform (Homo sapiens, UniProt P42336)", "T1 sequence (P42336 whole entry, canonical isoform)": "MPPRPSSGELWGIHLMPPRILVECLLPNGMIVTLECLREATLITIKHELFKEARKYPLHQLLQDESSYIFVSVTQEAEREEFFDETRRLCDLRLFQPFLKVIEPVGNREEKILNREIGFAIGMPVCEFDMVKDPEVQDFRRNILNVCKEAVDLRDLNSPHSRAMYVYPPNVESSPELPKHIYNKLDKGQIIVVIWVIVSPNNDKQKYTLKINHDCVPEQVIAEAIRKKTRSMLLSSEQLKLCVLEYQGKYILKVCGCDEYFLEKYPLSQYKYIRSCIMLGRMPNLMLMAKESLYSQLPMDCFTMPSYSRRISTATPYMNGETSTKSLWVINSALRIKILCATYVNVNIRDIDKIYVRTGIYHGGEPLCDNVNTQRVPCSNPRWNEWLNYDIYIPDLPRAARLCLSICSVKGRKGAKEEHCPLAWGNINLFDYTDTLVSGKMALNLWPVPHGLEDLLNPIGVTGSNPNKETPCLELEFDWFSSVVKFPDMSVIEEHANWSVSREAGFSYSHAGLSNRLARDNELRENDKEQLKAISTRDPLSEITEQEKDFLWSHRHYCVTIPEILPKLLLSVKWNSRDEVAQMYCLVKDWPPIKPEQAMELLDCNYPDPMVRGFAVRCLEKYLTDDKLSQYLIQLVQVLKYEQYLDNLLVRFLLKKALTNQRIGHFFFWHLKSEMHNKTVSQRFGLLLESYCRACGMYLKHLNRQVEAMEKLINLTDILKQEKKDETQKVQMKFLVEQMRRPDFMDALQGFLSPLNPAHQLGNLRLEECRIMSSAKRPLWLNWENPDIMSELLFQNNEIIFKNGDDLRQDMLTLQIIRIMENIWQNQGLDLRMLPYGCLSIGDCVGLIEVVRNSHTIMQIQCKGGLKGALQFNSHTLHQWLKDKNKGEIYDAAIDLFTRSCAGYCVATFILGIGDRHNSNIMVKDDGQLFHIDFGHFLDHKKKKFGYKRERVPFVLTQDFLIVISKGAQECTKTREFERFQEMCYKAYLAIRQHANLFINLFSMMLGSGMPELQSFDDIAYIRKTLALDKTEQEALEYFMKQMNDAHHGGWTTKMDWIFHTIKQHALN", "assay": "Inhibition of PI3K-alpha (unknown origin) by KinaseGlo assay", "conditions": "not given", "units": {"IC50": "µM"}}
{"compound": "COc1ccc(-c2ccc3ncnc(O[C@H]4CCN(C(C)=O)C4)c3c2)cc1OC", "IC50": 0.126}
{"compound": "CCC(=O)N1CC[C@H](Oc2ncnc3ccc(-c4ccc(OC)nc4)cc23)C1", "IC50": 0.218}
{"compound": "COc1ccc(-c2ccc3ncnc(O[C@@H]4CCN(C(=O)OC(C)(C)C)C4)c3c2)cc1OC", "IC50": 0.693}
{"biological_target": "T2, Phosphatidylinositol 4,5-bisphosphate 3-kinase catalytic subunit beta isoform (Homo sapiens, UniProt P42338)", "T2 sequence (P42338 whole entry, canonical isoform)": "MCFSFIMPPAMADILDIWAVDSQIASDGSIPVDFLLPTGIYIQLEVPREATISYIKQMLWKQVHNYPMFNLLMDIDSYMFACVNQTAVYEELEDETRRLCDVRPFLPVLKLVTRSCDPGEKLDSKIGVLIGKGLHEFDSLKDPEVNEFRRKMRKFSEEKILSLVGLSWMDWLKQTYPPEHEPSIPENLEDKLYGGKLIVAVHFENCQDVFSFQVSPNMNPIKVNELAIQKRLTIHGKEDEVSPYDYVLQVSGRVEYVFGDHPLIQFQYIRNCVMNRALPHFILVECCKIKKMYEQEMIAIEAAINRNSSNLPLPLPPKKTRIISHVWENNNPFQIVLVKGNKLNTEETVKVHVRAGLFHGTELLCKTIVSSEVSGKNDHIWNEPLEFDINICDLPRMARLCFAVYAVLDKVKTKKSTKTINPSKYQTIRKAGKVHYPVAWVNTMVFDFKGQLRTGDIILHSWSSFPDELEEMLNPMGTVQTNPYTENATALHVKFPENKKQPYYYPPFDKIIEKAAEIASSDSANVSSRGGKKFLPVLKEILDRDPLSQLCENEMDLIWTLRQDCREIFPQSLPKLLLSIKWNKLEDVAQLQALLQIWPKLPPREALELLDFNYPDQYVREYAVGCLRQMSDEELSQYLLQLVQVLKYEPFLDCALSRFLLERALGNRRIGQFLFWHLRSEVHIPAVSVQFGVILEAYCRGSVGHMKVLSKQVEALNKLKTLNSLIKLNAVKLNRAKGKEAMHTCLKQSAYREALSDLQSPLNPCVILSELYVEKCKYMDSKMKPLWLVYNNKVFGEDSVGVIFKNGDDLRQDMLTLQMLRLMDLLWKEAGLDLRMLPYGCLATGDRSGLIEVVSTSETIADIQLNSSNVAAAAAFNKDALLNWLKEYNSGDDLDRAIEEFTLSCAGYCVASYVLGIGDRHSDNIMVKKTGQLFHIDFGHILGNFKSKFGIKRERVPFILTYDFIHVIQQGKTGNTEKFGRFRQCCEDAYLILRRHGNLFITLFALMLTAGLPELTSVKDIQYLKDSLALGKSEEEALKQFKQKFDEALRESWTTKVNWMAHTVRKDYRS", "assay": "Inhibition of PI3K-beta (unknown origin) by KinaseGlo assay", "conditions": "not given", "units": {"IC50": "µM"}}
{"compound": "COc1ccc(-c2ccc3ncnc(O[C@H]4CCN(C(C)=O)C4)c3c2)cc1OC", "IC50": 0.304}
{"compound": "CCC(=O)N1CC[C@H](Oc2ncnc3ccc(-c4ccc(OC)nc4)cc23)C1", "IC50": 0.669}
{"compound": "COc1ccc(-c2ccc3ncnc(O[C@@H]4CCN(C(=O)OC(C)(C)C)C4)c3c2)cc1OC", "IC50": 3.88}
{"biological_target": "Phosphatidylinositol 4,5-bisphosphate 3-kinase catalytic subunit gamma isoform (Homo sapiens, UniProt P48736)", "sequence (P48736 whole entry, canonical isoform)": "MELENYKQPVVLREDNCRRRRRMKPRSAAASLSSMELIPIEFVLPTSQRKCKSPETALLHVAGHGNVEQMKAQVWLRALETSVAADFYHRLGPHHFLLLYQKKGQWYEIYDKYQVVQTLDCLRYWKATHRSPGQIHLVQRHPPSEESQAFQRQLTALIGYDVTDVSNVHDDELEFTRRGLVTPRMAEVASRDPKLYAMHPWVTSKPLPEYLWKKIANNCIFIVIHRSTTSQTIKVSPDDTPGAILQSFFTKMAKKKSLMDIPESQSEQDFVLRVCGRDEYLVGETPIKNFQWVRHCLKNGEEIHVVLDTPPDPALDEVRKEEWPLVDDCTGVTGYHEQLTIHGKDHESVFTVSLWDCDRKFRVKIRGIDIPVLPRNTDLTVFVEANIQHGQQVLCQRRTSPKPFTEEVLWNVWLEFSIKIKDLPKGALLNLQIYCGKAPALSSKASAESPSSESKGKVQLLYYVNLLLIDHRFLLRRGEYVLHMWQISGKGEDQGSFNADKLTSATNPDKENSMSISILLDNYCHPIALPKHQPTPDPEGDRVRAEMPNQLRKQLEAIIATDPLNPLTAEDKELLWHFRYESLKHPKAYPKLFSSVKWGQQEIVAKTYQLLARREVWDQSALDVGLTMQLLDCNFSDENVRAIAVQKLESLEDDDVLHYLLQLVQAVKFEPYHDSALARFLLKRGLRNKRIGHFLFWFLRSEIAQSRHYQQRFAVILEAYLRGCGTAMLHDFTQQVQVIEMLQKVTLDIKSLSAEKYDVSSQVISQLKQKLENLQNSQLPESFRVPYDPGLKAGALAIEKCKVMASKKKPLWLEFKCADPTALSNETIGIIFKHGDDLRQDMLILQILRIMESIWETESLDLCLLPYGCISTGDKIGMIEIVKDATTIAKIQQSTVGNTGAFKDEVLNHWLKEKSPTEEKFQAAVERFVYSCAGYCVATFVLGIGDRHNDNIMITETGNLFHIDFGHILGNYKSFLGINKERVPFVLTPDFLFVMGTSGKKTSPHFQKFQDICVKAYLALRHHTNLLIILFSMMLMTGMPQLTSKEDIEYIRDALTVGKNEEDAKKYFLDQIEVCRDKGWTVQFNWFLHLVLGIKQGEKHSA", "assay": "Inhibition of PI3K-gamma (unknown origin) by KinaseGlo assay", "conditions": "not given", "units": {"IC50": "µM"}}
{"compound": "COc1ccc(-c2ccc3ncnc(O[C@H]4CCN(C(C)=O)C4)c3c2)cc1OC", "IC50": 0.194}
{"compound": "CCC(=O)N1CC[C@H](Oc2ncnc3ccc(-c4ccc(OC)nc4)cc23)C1", "IC50": 0.698}
{"compound": "COc1ccc(-c2ccc3ncnc(O[C@@H]4CCN(C(=O)OC(C)(C)C)C4)c3c2)cc1OC", "IC50": 0.642}
{"biological_target": "T3, Phosphatidylinositol 4,5-bisphosphate 3-kinase catalytic subunit delta isoform (Homo sapiens, UniProt O00329)", "T3 sequence (O00329 whole entry)": "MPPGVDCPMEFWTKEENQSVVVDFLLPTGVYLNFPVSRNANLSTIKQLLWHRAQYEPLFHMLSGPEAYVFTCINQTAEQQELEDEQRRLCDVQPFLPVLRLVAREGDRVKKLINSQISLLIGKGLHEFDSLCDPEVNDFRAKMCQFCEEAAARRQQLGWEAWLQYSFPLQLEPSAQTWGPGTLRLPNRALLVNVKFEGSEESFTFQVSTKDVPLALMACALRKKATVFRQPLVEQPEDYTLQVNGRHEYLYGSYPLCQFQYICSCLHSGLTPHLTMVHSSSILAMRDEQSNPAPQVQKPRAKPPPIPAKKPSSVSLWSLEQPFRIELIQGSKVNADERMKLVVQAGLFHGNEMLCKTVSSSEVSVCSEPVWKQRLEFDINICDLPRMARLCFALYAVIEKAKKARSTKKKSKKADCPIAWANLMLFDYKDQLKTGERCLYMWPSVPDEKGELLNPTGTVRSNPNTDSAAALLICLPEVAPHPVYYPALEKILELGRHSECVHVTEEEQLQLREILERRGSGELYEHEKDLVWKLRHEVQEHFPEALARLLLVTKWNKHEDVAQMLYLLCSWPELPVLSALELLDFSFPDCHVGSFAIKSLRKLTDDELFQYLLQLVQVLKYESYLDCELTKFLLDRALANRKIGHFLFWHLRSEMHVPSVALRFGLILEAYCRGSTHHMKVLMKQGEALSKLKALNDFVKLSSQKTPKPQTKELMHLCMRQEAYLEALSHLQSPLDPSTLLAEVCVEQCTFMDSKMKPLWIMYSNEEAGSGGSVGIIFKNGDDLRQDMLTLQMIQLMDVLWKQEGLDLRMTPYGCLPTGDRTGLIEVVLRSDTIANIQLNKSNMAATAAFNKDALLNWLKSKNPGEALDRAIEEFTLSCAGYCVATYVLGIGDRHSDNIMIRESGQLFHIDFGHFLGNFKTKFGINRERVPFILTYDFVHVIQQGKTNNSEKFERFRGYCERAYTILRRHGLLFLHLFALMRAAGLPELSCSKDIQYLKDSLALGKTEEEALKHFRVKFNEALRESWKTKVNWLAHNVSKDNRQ", "assay": "Inhibition of PI3K-delta (unknown origin) by KinaseGlo assay", "conditions": "not given", "units": {"IC50": "µM"}}
{"compound": "COc1ccc(-c2ccc3ncnc(O[C@H]4CCN(C(C)=O)C4)c3c2)cc1OC", "IC50": 0.016}
{"compound": "CCC(=O)N1CC[C@H](Oc2ncnc3ccc(-c4ccc(OC)nc4)cc23)C1", "IC50": 0.009}
{"compound": "COc1ccc(-c2ccc3ncnc(O[C@@H]4CCN(C(=O)OC(C)(C)C)C4)c3c2)cc1OC", "IC50": 0.256}
{"biological_target": "T1, Phosphatidylinositol 4,5-bisphosphate 3-kinase catalytic subunit alpha isoform", "assay": "Inhibition of myristoylated PI3K-alpha (unknown origin) overexpressed in Rat1 cells assessed as inhibition of Akt phosphorylation", "assay_type": "cell-based", "conditions": "not given", "units": {"IC50": "µM"}}
{"compound": "COc1ccc(-c2ccc3ncnc(O[C@H]4CCN(C(C)=O)C4)c3c2)cc1OC", "IC50": 0.21}
{"compound": "CCC(=O)N1CC[C@H](Oc2ncnc3ccc(-c4ccc(OC)nc4)cc23)C1", "IC50": 1.03}
{"biological_target": "T2, Phosphatidylinositol 4,5-bisphosphate 3-kinase catalytic subunit beta isoform", "assay": "Inhibition of myristoylated PI3K-beta (unknown origin) overexpressed in Rat1 cells assessed as inhibition of Akt phosphorylation", "assay_type": "cell-based", "conditions": "not given", "units": {"IC50": "µM"}}
{"compound": "COc1ccc(-c2ccc3ncnc(O[C@H]4CCN(C(C)=O)C4)c3c2)cc1OC", "IC50": 0.407}
{"compound": "CCC(=O)N1CC[C@H](Oc2ncnc3ccc(-c4ccc(OC)nc4)cc23)C1", "IC50": 1.78}
{"biological_target": "T3, Phosphatidylinositol 4,5-bisphosphate 3-kinase catalytic subunit delta isoform", "assay": "Inhibition of myristoylated PI3K-delta (unknown origin) overexpressed in Rat1 cells assessed as inhibition of Akt phosphorylation", "assay_type": "cell-based", "conditions": "not given", "units": {"IC50": "µM"}}
{"compound": "COc1ccc(-c2ccc3ncnc(O[C@H]4CCN(C(C)=O)C4)c3c2)cc1OC", "IC50": 0.082}
{"compound": "CCC(=O)N1CC[C@H](Oc2ncnc3ccc(-c4ccc(OC)nc4)cc23)C1", "IC50": 0.028}
{"biological_target": "T4, Phosphatidylinositol 4,5-bisphosphate 3-kinase catalytic subunit delta isoform (Mus musculus, UniProt O35904)", "T4 sequence (O35904 whole entry)": "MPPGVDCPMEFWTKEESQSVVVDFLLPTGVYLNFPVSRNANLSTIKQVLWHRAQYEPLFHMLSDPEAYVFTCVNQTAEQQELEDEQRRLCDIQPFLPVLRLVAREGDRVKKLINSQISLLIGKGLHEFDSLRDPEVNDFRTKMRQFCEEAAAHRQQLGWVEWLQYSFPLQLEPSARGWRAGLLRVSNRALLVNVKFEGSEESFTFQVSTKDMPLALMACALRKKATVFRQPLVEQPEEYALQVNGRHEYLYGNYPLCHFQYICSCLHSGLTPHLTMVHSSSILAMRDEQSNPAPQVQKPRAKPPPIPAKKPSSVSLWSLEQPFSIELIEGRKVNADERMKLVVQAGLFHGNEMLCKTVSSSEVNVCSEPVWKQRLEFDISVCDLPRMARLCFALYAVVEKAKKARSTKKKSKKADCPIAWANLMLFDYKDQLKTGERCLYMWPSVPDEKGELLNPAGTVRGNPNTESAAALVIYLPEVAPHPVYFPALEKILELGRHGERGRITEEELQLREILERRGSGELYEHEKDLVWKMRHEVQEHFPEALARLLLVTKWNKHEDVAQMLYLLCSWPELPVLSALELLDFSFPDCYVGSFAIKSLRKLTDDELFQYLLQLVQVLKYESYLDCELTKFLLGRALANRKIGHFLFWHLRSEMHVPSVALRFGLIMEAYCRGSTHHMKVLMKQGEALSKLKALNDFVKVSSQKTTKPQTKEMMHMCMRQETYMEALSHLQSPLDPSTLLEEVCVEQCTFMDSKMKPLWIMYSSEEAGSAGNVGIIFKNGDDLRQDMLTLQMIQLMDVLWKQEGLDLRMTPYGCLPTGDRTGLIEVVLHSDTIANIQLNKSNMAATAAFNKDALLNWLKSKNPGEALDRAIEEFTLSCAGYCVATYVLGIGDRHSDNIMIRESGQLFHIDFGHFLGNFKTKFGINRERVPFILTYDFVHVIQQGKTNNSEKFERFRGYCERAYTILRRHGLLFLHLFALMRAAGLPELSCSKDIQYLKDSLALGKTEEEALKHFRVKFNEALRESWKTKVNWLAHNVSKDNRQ", "assay": "Inhibition of PI3K-delta in mouse splenocytes assessed as inhibition anti-IgM induced CD86 expression", "assay_type": "cell-based", "conditions": "not given", "units": {"IC50": "µM"}}
{"compound": "CCC(=O)N1CC[C@H](Oc2ncnc3ccc(-c4ccc(OC)nc4)cc23)C1", "IC50": 0.082}
{"tested_on": "not listed separately", "assay": "Inhibition of PI3K-delta in rat whole blood assessed as inhibition of anti-IgM/IL4 induced CD86 expression", "assay_type": "tissue-based", "conditions": "not given", "units": {"IC50": "µM"}}
{"compound": "CCC(=O)N1CC[C@H](Oc2ncnc3ccc(-c4ccc(OC)nc4)cc23)C1", "IC50": 0.297}
{"tested_on": "not listed separately", "assay": "Lipophilicity, log P of the compound by high-throughput assay", "assay_type": "physicochemical", "conditions": "octanol/water"}
{"compound": "COc1ccc(-c2ccc3ncnc(O[C@H]4CCN(C(C)=O)C4)c3c2)cc1OC", "logP": 2.6}
{"compound": "CCC(=O)N1CC[C@H](Oc2ncnc3ccc(-c4ccc(OC)nc4)cc23)C1", "logP": 2.8}
{"compound": "COc1ccc(-c2ccc3ncnc(O[C@@H]4CCN(C(=O)OC(C)(C)C)C4)c3c2)cc1OC", "logP": 4.9}
{"tested_on": "not listed separately", "assay": "Solubility of the compound at pH 6.8 by high-throughput equilibrium analysis", "assay_type": "physicochemical", "conditions": "buffer", "units": {"solubility thermodynamic": "µM"}}
{"compound": "COc1ccc(-c2ccc3ncnc(O[C@H]4CCN(C(C)=O)C4)c3c2)cc1OC", "solubility thermodynamic": "> 1000"}
{"compound": "CCC(=O)N1CC[C@H](Oc2ncnc3ccc(-c4ccc(OC)nc4)cc23)C1", "solubility thermodynamic": "> 1000"}
{"compound": "COc1ccc(-c2ccc3ncnc(O[C@@H]4CCN(C(=O)OC(C)(C)C)C4)c3c2)cc1OC", "solubility thermodynamic": 6}
{"biological_target": "T5, Phosphatidylinositol 4,5-bisphosphate 3-kinase catalytic subunit delta isoform (Homo sapiens) (UniProt O00329)", "T5 sequence (whole entry)": "T3 sequence (O00329 whole entry)", "assay": "Selectivity ratio of IC50 for myristoylated PI3K-delta (unknown origin) overexpressed in Rat1 cells to IC50 for PI3K-delta (unknown origin)", "assay_type": "cell-based", "conditions": "not given"}
{"compound": "COc1ccc(-c2ccc3ncnc(O[C@H]4CCN(C(C)=O)C4)c3c2)cc1OC", "Ratio IC50": 5}
{"compound": "CCC(=O)N1CC[C@H](Oc2ncnc3ccc(-c4ccc(OC)nc4)cc23)C1", "Ratio IC50": 3}
{"tested_on": "Rat1", "assay": "Selectivity ratio of IC50 for PI3K-delta in rat whole blood to IC50 for myristoylated PI3K-delta (unknown origin) overexpressed in Rat1 cells", "assay_type": "cell-based", "conditions": "not given"}
{"compound": "CCC(=O)N1CC[C@H](Oc2ncnc3ccc(-c4ccc(OC)nc4)cc23)C1", "Ratio IC50": 11}
